Data published in ChEMBL document CHEMBL4602730, “In Vitro and in Vivo Evaluation of Membrane-Active Flavone Amphiphiles: Semisynthetic Kaempferol-Derived Antimicrobials against Drug-Resistant Gram-Positive Bacteria” (J Med Chem, 2020).
≈ marks a conversion by molar mass, not a printed value.

What was measured:
Staphylococcus aureus [1] = experiment: Antibacterial activity against Staphylococcus aureus ATCC 29213 assessed as inhibition of bacterial growth incubated for 24 hrs by broth microdilution method; type: functional; conditions: ATCC 29213, 24 h
Staphylococcus aureus [2] = experiment: Antibacterial activity against methicillin-resistant Staphylococcus aureus N315 assessed as inhibition of bacterial growth incubated for 24 hrs by broth microdilution method; type: functional; conditions: N315, 24 h
Staphylococcus aureus [3] = experiment: Antibacterial activity against methicillin-resistant Staphylococcus aureus NCTC 10442 assessed as inhibition of bacterial growth incubated for 24 hrs by broth microdilution method; type: functional; conditions: NCTC 10442, 24 h
[4] = Induction of hemolysis in rabbit RBC incubated for 1 hr; type: cell-based, Oryctolagus cuniculus, Erythrocyte; conditions: rabbit red blood cells (erythrocytes)

Row | SMILES | MIC (Staphylococcus aureus [1]) [µM] | MIC (Staphylococcus aureus [2]) [µM] | MIC (Staphylococcus aureus [3]) [µM] | HC50 at 1 h [4] [µM]
1 | CCCC[N+](C)(CCCC)CCCOc1c(-c2ccc(OCC=C(C)C)cc2)oc2cc(OCC=C(C)C)cc(O)c2c1=O | 17.1 | 17.1 | 34.1 | 46.9
2 | CCN(CC)CCCCCCCCOc1c(-c2ccc(OCC=C(C)C)cc2)oc2cc(OCC=C(C)C)cc(O)c2c1=O | 82.5 (≈ 50 µg/mL) | 20.6 (≈ 12.5 µg/mL) | 82.5 (≈ 50 µg/mL) | 29.4
3 | COC(=O)[C@H](Cc1c[nH]cn1)NC(=O)COc1c(-c2ccc(OCC=C(C)C)cc2)oc2cc(OCC=C(C)C)cc(O)c2c1=O | > 79.2 | > 79.2 | > 79.2 | > 317
4 | CC(C)=CCOc1ccc(-c2oc3cc(OCC=C(C)C)cc(O)c3c(=O)c2OCCCN2CCN(C)CC2)cc1 | 22.2 (≈ 12.5 µg/mL) | 11.1 (≈ 6.25 µg/mL) | 22.2 (≈ 12.5 µg/mL) | 83.3
5 | CCCCCCCCNCCCOc1c(-c2ccc(OCC=C(C)C)cc2)oc2cc(OCC=C(C)C)cc(O)c2c1=O | > 84.5 | 21.1 (≈ 12.5 µg/mL) | > 84.5 | > 338
6 | CCCOc1ccc(-c2oc3cc(OCCC)cc(O)c3c(=O)c2O)cc1 | > 135 | > 135 | > 135 | > 540
7 | CCCCN(CCCC)CCCOc1c(-c2ccc(OCC=C(C)C)cc2)oc2cc(OCC=C(C)C)cc(O)c2c1=O | > 84.5 | > 84.5 | > 84.5 | > 338
8 | CCN(CC)CCCOc1c(-c2ccc(OCC=C(C)C)cc2)oc2cc(OCC=C(C)C)cc(O)c2c1=O | 5.8 (≈ 3.11 µg/mL) | 5.8 (≈ 3.11 µg/mL) | 5.8 (≈ 3.11 µg/mL) | 59.9
9 | O=c1c(O)c(-c2ccc(O)cc2)oc2cc(O)cc(O)c12 [KAEMPFEROL] | > 175 | > 175 | > 175 | –
10 | CC(C)=CCOc1ccc(-c2oc3cc(OCC=C(C)C)cc(O)c3c(=O)c2O)cc1 | > 118 | > 118 | > 118 | > 473
11 | CCN(CC)CCCCCCCCCCOc1c(-c2ccc(OCC=C(C)C)cc2)oc2cc(OCC=C(C)C)cc(O)c2c1=O | > 78.9 | > 78.9 | > 78.9 | > 316
12 | CCCCCCCOc1ccc(-c2oc3cc(OCCCCCCC)cc(O)c3c(=O)c2O)cc1 | > 104 | > 104 | > 104 | > 414
13 | CC(C)=CCOc1ccc(-c2oc3cc(OCC=C(C)C)cc(OCC(=O)NCCCN(C)C)c3c(=O)c2OCC(=O)NCCCN(C)C)cc1 | 35.4 (≈ 25 µg/mL) | 70.7 (≈ 50 µg/mL) | 70.7 (≈ 50 µg/mL) | > 283
14 | COC(=O)[C@H](CCCNC(=N)N)NC(=O)[C@H](CCCNC(=N)N)NC(=O)COc1c(-c2ccc(OCC=C(C)C)cc2)oc2cc(OCC=C(C)C)cc(O)c2c1=O | 3.9 (≈ 3.15 µg/mL) | 3.9 (≈ 3.15 µg/mL) | 3.9 (≈ 3.15 µg/mL) | 82.5
15 | CC(C)=CCOc1ccc(-c2oc3cc(OCC=C(C)C)cc(O)c3c(=O)c2OCCCN2CCSCC2)cc1 | > 88.4 | > 88.4 | > 88.4 | > 354
16 | CC(C)=CCOc1ccc(-c2oc3cc(OCC=C(C)C)cc(O)c3c(=O)c2OCC(=O)NCCCN(C)C)cc1 | 11.1 (≈ 6.27 µg/mL) | 11.1 (≈ 6.27 µg/mL) | 22.1 (≈ 12.5 µg/mL) | 287
17 | CCN(CC)CCCCCOc1c(-c2ccc(OCC=C(C)C)cc2)oc2cc(OCC=C(C)C)cc(O)c2c1=O | 22.2 (≈ 12.5 µg/mL) | 22.2 (≈ 12.5 µg/mL) | 22.2 (≈ 12.5 µg/mL) | 99
18 | CCN(CC)CCCNC(=O)COc1c(-c2ccc(OCC=C(C)C)cc2)oc2cc(OCC=C(C)C)cc(O)c2c1=O | 10.5 (≈ 6.22 µg/mL) | 10.5 (≈ 6.22 µg/mL) | 21.1 (≈ 12.5 µg/mL) | 80.3
19 | CCCCCOc1ccc(-c2oc3cc(OCCCCC)cc(O)c3c(=O)c2O)cc1 | > 117 | > 117 | > 117 | > 469

Row | SMILES | MIC (Staphylococcus aureus [1]) [µM] | MIC (Staphylococcus aureus [2]) [µM] | MIC (Staphylococcus aureus [3]) [µM] | HC50 at 1 h [4] [µM]
20 | CCCCCCCCCOc1ccc(-c2oc3cc(OCCCCCCCCC)cc(O)c3c(=O)c2O)cc1 | > 92.8 | > 92.8 | > 92.8 | > 371
21 | CCN(CC)CCOc1c(-c2ccc(OCC=C(C)C)cc2)oc2cc(OCC=C(C)C)cc(O)c2c1=O | 95.8 (≈ 50 µg/mL) | 95.8 (≈ 50 µg/mL) | 95.8 (≈ 50 µg/mL) | > 383
22 | CCCCCOc1ccc(-c2oc3cc(OCCCCC)cc(O)c3c(=O)c2OCCCN(CC)CC)cc1 | 11.6 (≈ 6.26 µg/mL) | 11.6 (≈ 6.26 µg/mL) | 23.2 (≈ 12.5 µg/mL) | 284
23 | CCCNCCCOc1c(-c2ccc(OCC=C(C)C)cc2)oc2cc(OCC=C(C)C)cc(O)c2c1=O | 24 (≈ 12.5 µg/mL) | 6 (≈ 3.13 µg/mL) | 12 (≈ 6.26 µg/mL) | 49.8
24 | CCCCCCCCCOc1ccc(-c2oc3cc(OCCCCCCCCC)cc(O)c3c(=O)c2OCCCN(CC)CC)cc1 | > 76.7 | > 76.7 | > 76.7 | > 307
25 | CCN(CC)CCCCCCOc1c(-c2ccc(OCC=C(C)C)cc2)oc2cc(OCC=C(C)C)cc(O)c2c1=O | 10.8 (≈ 6.24 µg/mL) | 10.8 (≈ 6.24 µg/mL) | 10.8 (≈ 6.24 µg/mL) | 83.8
26 | CC(C)=CCOc1ccc(-c2oc3cc(OCC=C(C)C)cc(O)c3c(=O)c2OCC(=O)N[C@@H](CCCNC(=N)N)C(=O)NCCCN(C)C)cc1 | 8.7 (≈ 6.27 µg/mL) | 8.7 (≈ 6.27 µg/mL) | 8.7 (≈ 6.27 µg/mL) | 131
27 | CCN(CC)CCCNC(=O)COc1c(-c2ccc(OCC=C(C)C)cc2)oc2cc(OCC=C(C)C)cc(OCC(=O)NCCCN(CC)CC)c2c1=O | > 65.5 | > 65.5 | > 65.5 | > 262
28 | CC(C)=CCOc1ccc(-c2oc3cc(OCC=C(C)C)cc(O)c3c(=O)c2OCCCN(C)C)cc1 | 12.3 (≈ 6.24 µg/mL) | 12.3 (≈ 6.24 µg/mL) | 12.3 (≈ 6.24 µg/mL) | 228
29 | CCN(CC)CCCCOc1c(-c2ccc(OCC=C(C)C)cc2)oc2cc(OCC=C(C)C)cc(O)c2c1=O | 5.7 (≈ 3.13 µg/mL) | 5.7 (≈ 3.13 µg/mL) | 5.7 (≈ 3.13 µg/mL) | 32.2
30 | CC[N+](C)(CC)CCCOc1c(-c2ccc(OCC=C(C)C)cc2)oc2cc(OCC=C(C)C)cc(O)c2c1=O | 4.6 | 2.3 | 4.6 | 88.2
31 | CC(C)=CCOc1ccc(-c2oc3cc(OCC=C(C)C)cc(O)c3c(=O)c2OCCCN2CCOCC2)cc1 | > 91 | > 91 | > 91 | > 364
32 | CCCCCNCCCOc1c(-c2ccc(OCC=C(C)C)cc2)oc2cc(OCC=C(C)C)cc(O)c2c1=O | 45.5 (≈ 25 µg/mL) | 11.4 (≈ 6.27 µg/mL) | 22.7 (≈ 12.5 µg/mL) | 69.7
33 | CCCN(CCC)CCCOc1c(-c2ccc(OCC=C(C)C)cc2)oc2cc(OCC=C(C)C)cc(O)c2c1=O | > 88.7 | > 88.7 | > 88.7 | > 355
34 | CCCCCCCOc1ccc(-c2oc3cc(OCCCCCCC)cc(O)c3c(=O)c2OCCCN(CC)CC)cc1 | > 83.9 | > 83.9 | > 83.9 | > 336
35 | CC(C)=CCOc1ccc(-c2oc3cc(OCC=C(C)C)cc(O)c3c(=O)c2OCCC[N+](C)(C)C)cc1 | 4.8 | 2.4 | 4.8 | 77.3
36 | CCCOc1ccc(-c2oc3cc(OCCC)cc(O)c3c(=O)c2OCCCN(CC)CC)cc1 | 12.9 (≈ 6.24 µg/mL) | 12.9 (≈ 6.24 µg/mL) | 12.9 (≈ 6.24 µg/mL) | 121
37 | CC(C)=CCOc1ccc(-c2oc3cc(OCC=C(C)C)cc(O)c3c(=O)c2OCCCN2CCCC2)cc1 | 23.4 (≈ 12.5 µg/mL) | 11.7 (≈ 6.24 µg/mL) | 23.4 (≈ 12.5 µg/mL) | > 375
